The results in this text go back to patent publication US20130203110A1 (priority 2010, published 2013).

The target of the assay is α7 subunit of the nicotinic Acetylcholine Receptor (nAchR) (Homo sapiens, UniProt P36544). It counts as biochemical.
Chain of α7 subunit of the nicotinic Acetylcholine Receptor (nAchR) (P36544 23-502 limits assumed): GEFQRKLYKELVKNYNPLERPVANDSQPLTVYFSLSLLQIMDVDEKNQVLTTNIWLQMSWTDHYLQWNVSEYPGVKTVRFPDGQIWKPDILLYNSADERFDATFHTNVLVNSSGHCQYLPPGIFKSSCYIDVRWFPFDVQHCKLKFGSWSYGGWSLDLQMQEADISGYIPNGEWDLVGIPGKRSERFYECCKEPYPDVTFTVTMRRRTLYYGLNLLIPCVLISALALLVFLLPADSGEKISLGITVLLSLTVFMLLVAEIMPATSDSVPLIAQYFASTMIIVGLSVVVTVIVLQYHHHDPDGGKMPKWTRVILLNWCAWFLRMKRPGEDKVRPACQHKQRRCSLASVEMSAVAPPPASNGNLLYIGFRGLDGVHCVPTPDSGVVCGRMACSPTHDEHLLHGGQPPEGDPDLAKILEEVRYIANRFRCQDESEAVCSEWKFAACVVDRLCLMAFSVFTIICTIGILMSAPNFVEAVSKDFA

For the compound `C[N+](C)(C)CCOC(N)=O.[Cl-]` [carbamoylcholinechloride, Carbamoylcholine chloride], the “signal on activation of the nAchR sensor” value is recorded as “results in a signal”. On to α-Bungarotoxin [α-BTX], for which the “carbamoylcholine-induced signal after incubation with inhibitor” value is “could not be generated the same way”.
